{
  "source": "patent US7541359B2",
  "about": "“N-heteroarylpiperazinyl ureas as modulators of fatty acid amide hydrolase” (Janssen Pharmaceutica N.V., priority 2005, dated 2009)",
  "origin": "cited, not measured here",
  "key": {"CREAE mice": {"tested_on": "CREAE mice", "conditions": "model of multiple sclerosis; cited from earlier work"}, "rats [1]": {"tested_on": "rats", "conditions": "cited from earlier work"}, "rats [2]": {"tested_on": "rats", "conditions": "cited from earlier work", "remark": "listed apart in the source"}, "rats [3]": {"tested_on": "rats", "conditions": "cited from earlier work", "remark": "listed apart in the source"}, "rats [4]": {"tested_on": "rats", "conditions": "cited from earlier work", "remark": "listed apart in the source"}, "FAAH": {"target": "T1, FAAH (Homo sapiens, UniProt O00519)", "T1 sequence (O00519 1-579)": "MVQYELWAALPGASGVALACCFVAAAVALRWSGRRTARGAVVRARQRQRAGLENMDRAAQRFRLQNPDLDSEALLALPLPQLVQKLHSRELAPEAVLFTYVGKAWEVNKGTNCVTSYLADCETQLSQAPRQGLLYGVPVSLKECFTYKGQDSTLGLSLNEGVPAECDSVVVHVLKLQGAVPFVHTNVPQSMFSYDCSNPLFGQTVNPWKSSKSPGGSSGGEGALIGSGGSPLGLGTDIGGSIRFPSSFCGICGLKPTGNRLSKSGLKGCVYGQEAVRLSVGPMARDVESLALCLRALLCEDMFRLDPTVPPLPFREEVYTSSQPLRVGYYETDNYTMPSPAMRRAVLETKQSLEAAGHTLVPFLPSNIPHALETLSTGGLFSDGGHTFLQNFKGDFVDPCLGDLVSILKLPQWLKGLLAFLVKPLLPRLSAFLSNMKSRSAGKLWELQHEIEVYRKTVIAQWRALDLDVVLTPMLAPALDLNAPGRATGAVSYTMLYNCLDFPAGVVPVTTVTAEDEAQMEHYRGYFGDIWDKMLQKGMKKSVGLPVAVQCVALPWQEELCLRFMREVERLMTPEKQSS", "set-up": "T84 frozen pellets (contents of 1-4×15 cm culture dishes) were homogenized in 300 mL of FAAH assay buffer; endogenous in cells; host or cells: T84 cells (homogenate)", "conditions": "cited from earlier work"}, "rats [5]": {"tested_on": "rats", "conditions": "cited from earlier work", "remark": "listed apart in the source"}, "rats [6]": {"tested_on": "rats", "conditions": "rat; cited from earlier work"}},
  "data": [
    {"smiles": "CCCCCCCCCCCCCCCCS(=O)(=O)F", "note": "[AM374]", "values": [
      {"measurement": "reduction of spasticity", "setting": "CREAE mice", "value": "significantly reduce spasticity"}
    ]},
    {"smiles": "Cc1nc(-c2ccccc2)c(-c2ccccc2)n1CCCCCCNC(=O)Oc1ccccc1F", "note": "[BMS-1]", "values": [
      {"measurement": "analgesic effect in the Chung spinal nerve ligation model of neuropathic pain", "setting": "rats [1]", "value": "analgesic effect"},
      {"measurement": "analgesic effect in the Hargraves test of acute thermal nociception", "setting": "rats [2]", "value": "analgesic effect"}
    ]},
    {"smiles": "O=C(CCCCCCc1ccccc1)c1ncc(-c2ccccn2)o1", "note": "[OL-135]", "values": [
      {"measurement": "analgesic efficacy/activity in the hot plate test", "setting": "rats [3]", "value": "analgesic activity"},
      {"measurement": "analgesic activity in the tail emersion test of thermal nociception", "setting": "rats [4]", "value": "analgesic activity"},
      {"measurement": "inhibition of FAAH", "setting": "FAAH", "value": "potent inhibitor"}
    ]},
    {"smiles": "NC(=O)c1cccc(-c2cccc(OC(=O)NC3CCCCC3)c2)c1", "note": "[URB-597]", "values": [
      {"measurement": "efficacy in the zero plus maze model of anxiety", "setting": "rats [5]", "value": "efficacy"},
      {"measurement": "analgesic efficacy/activity in the hot plate test", "setting": "rats [3]", "value": "analgesic efficacy"},
      {"measurement": "analgesic efficacy in the formalin test", "setting": "rats [6]", "value": "analgesic efficacy"}
    ]}
  ]
}
